Here are results for two molecules from article PMC9014415, “Repositioning of a Diaminothiazole Series Confirmed to Target the Cyclin-Dependent Kinase CRK12 for Use in the Treatment of African Animal Trypanosomiasis” (Journal of Medicinal Chemistry, 2022).

Values joined by “and” are separate entries in the source; they are usually repeats but may differ in a detail not shown here. Equal values may be shown once.

A short description of data set [1]: PK and formulation studies in Sprague Dawley rats, IM. The format is in vivo. The settings on record: rat, single IM 5 mg/kg. As to the method:
2.4 Protein plasma binding […]
2.6 PK and formulation studies - male Sprague rats
Compound 1 was dosed SC at 5 mg free base/kg (dose volume 0.2 or 1 mL/kg; dose vehicle 10% N-methyl-2- pyrrolidinone (NMP), 30% 2-pyrrolidinone, 40% PEG400, 20% deionized water or 10% DMSO, 30% PEG400 and 60% deionized water, respectively) or IM at 5 and 10 mg free base/kg (dose volume 0.2 mL/kg; dose vehicle 10% NMP, 30% 2-pyrrolidinone, 40% PEG400, 20% deionized water or 83.4% 2-pyrrolidinone/polyvinylpyrrolidone (PVP), 16.6% saline or 80% 2-pyrrolidinone/NMP/PVP, 20% (0.05% 2-propanol in saline) to male SD rats (n=3).
Compound 2 was dosed IV at 3 mg free base/kg (dose volume 1 mL/kg; dose vehicle: 10% DMSO, 40% PEG400 and 50% deionized water) or IM at 5, 10 and 20 mg free base/kg (dose volume 0.2 […]
and 0.4 mL/kg; dose vehicle 10% NMP, 30% 2-pyrrolidinone, 40% PEG400, 20% deionized water or 83.4% 2-pyrrolidinone/polyvinylpyrrolidone (PVP), 16.6% saline or 80% 2-pyrrolidinone/NMP/PVP, 20% 0.05% 2-propanol in saline or 40% 0.3M Acetate Buffer, 20% Kolliphor, 20% glycerol formal, 20% 2-pyrrolidinone or 40% 0.3M Acetate Buffer, 20% glycerol formal, 20% 2-pyrrolidinone) to male SD rats (n=3). […]
Compound 2 was dosed IM at 10 mg free base/kg (dose volume 2 mL/10 kg; dose vehicle 40% 0.3 M Acetate Buffer, 20% Kolliphor EL, 20% glycerol formal, 20% 2-pyrrolidone) or IV at 2 mg free base/kg (dose volume 0.4 mL/10 kg; 40% 0.3 M Acetate Buffer, 20% Kolliphor EL, 20% glycerol formal, 20% 2-pyrrolidone) to male ruminating Holstein-Friesian cross animals (n = 3). Blood samples were taken from each animal using 18-G needles into EDTA (K2) vacutainers before dosing […]
into a cool box containing iced water and were processed within 2 h of collection.
2.8 Formulation and tolerability studies for compound 2 (NorthWest Biopharm) A study to identify alternative formulations was conducted. Compound 2, either as the hydrochloride salt or free base, was screened to identify a 50 mg/mL soluble formulation suitable for injection. […]
Kolliphor EL, N-methyl pyrrolidone, 2-pyrrolidone and 11% water at 5 mg/kg was assessed, IM […]
A screen of salt forms as alternatives to the hydrochloride was carried out at Drugabilis. Ten pharmaceutically acceptable counter ions were assessed and three were selected for further study […]
(citrate, fumarate and phosphate) (Figure 9). These alternative salt forms of compound 2 were prepared and formulated in the best vehicle determined by injection site tolerability analysis (0.3M sodium acetate buffer, Kolliphor EL, N-methyl pyrrolidone, 2-pyrrolidone, and 11% water suitable for injection). […]

The subject of another data set is T. congolense. Kind of data set: Cattle efficacy for compound 2, intramuscular (CIRDES), T. congolense. The format is in vivo, Trypanosoma congolense. How it is done: Compound 2 was progressed into IM efficacy studies dosing at 10 mg/kg either once or twice, 15 h apart, in cattle infected with T. congolense or T. vivax. […]
3.5 Cattle efficacy for compound 2, intramuscular (CIRDES)
Felani-zebu cattle were housed in a fly-proof facility, acclimatised for 15 d prior to the study, cattle were treated with an anthelmintic, an ectoparasiticide and an antibiotic. Donor animals were infected with stabilates (frozen stocks) of either T. congolense KOT256 (resistant to 7 mg/kg diminazene in cattle) or T. vivax Gando Bongaly (resistant to diminazene 7 mg/kg and to isometamidium 1 mg/kg […]
in cattle). Blood from the donor animals, diluted with phosphate buffered glucose was used to infect recipient animals IV via the jugular vein. Infection was with approximately 100,000 fresh viable parasites. The compounds were given IM. Each injection was up to 10 mL and given in neck in the following order: left anterior third, right anterior third, left posterior third and right posterior third.
Animals over 240 kg required a fifth injection site for the IVP, and this was given in the left or right hind leg. Cattle were randomised to treatments. Parasitaemia was monitored 3 times per calendar week, though collection of blood and assessment of clinical symptoms. Blood samples were also […]
treatment). […]

Usually Cmax stands for the highest concentration seen after dosing. The molecule `CC(C)CS(=O)(=O)N[C@H]1CC[C@H](Nc2nc(N)c(C(=O)c3c(F)cccc3F)s2)CC1` [Compound 1, N-((trans)-4-((4-Amino-5-(2,6-difluorobenzoyl)thiazol-2-yl)amino)cyclohexyl)-2-methylpropane-1-sulfonamide] came in with a Cmax in data set [1] (male, blood, Sprague Dawley rats, 10% NMP, 30% 2-pyrrolidinone, 40% PEG400, 20% water, mean) of 92 ng/mL. For the same molecule, in data set [1] (male, blood, Sprague Dawley rats, 10% NMP, 30% 2-pyrrolidinone, 40% PEG400, 20% water, mean, read-out: AUC0-8 (converted)), the AUC(0-t) was 354 ng·h/mL. Moreover, the “Time at which free concentration in blood <EC99” value was 3 h in data set [1] (formulation A: 83.4% PVP/2-pyrrolidone, 16.6% saline) and 4 h in data set [1] (formulation B: 80% vehicle 1 (NMP:2-pyrrolidone): 20% vehicle 2).

Consider `CC(C)CS(=O)(=O)N[C@H]1CC[C@H](Nc2nc(N)c(C(=O)c3c(F)cc(CN(C)C)cc3F)s2)CC1` [Compound 2, N-(trans)-[4-[[4-Amino-5-[4-(dimethylaminomethyl)-2,6-difluoro-benzoyl]thiazol-2-yl]amino]cyclohexyl]-2-methyl-propane-1-sulfonamide], for which the Cattle cured entry in the data set with T. congolense (10 mg/kg IM twice, 15 h apart, treatment groups T2 and T4 together) was “three out of the eight”. For the same molecule, the efficacy with T. congolense (T1, 10 mg/kg IM once, cured/animals, 100 days) is 0/6; with T. congolense (T2, 10 mg/kg IM twice, 15 h apart, cured/animals), 1/4; with T. congolense (T4, saline twice, followed by compound 2 rescue dose twice IM 5 days later) it was 2/4. Besides, the “Efficacy, individual animals” value in the data set on T. congolense (T1 single dose IM, animals 1903, 1910, 1913, 1924, 1935, 1936) was “no”; with T. congolense (T2 dosed twice IM, animals 1905, 1906, 1909, 1917) it was “no (3×) and yes”; in the data set with T. congolense (T4 after 2 (two rescue doses IM), animals 1914, 1921, 1923, 1927), “no (2×) and yes (2×)”.
